# Results as given in patent US7186703B2, “Derivatives of branched-chain lipophilic molecules and uses thereof” (D-Pharm Ltd., priority 2000, dated 2007).
# Several values for one entry are separate records, joined by “and”; a condition that tells them apart may be missing. Equal entries are not always repeated. Where two headings read alike, the source gives them in different places.
# Assays:
# C6 gliosarcoma tumor = assay: Anti-tumor activity in C6 glioma-bearing rats, tumor volume (Example 27); assay type: in vivo, rat; conditions: for Tumor volume (mm^3) ± SE: control 8.1 ± 2.22; for anti-tumor effect on glioma growth (in words): rat, in vivo
# Source text: The anti-tumor effects of various P-BFAs were studied in the in vivo model system described above in Example 17. Tested P-BFAs were intra-arterially administered at the concentrations previously determined as being effective in permeabilization of the BBB and BTB for Evans blue and Fluorescein extravasation. The experimental procedure for tumor inoculation, as described in Example 23, was followed.
# On Day 3–4 following inoculation of the C6 gliosarcoma cells, rat were cannulated through external carotid artery and the tested P-BFAs were infused over 30 seconds, as described in Example 17, except that in this experiment no markers were administered. The treated rats were maintained until Day 7–9, and then sacrificed. Coronal sections were obtained, stained by eosin-hematoxylin, and reviewed histologically to determine tumor volume. Animals treated with vehicle only serve as control. Standard error and Student's test for statistical significance were used.
# [1] = test system: Caco-2 colon cancer cell line; assay: MTT cytotoxicity, Caco-2; assay type: cell-based, human; conditions: Caco-2, three days, read-out: EC50 (50% reduction in cell viability)
# Method: (§1) The cytotoxic activity of various phospho-derivatives of branched-chain fatty acids (DP-BFAs) was assayed in vitro in cell cultures that include normal and malignant cell types. The following cell systems were used: • Primary fibroblasts (human) • Normal bone marrow (BM) cells (mouse) • Primary bronchial epithelial cells (human, from Clonetics, cat. no. CC-2541) • Caco-2—colon cancer cell line (human, ATTC, HTB-37) • C6 glioma cell line (rat, ATCC, CRL-2199) • Neuro2a—neuroblastoma cell line (mouse, ATCC, CCL-131) • SKBR-3—breast cancer cell line (human, ATTC, HTB-30) • HL60—myeloid leukemia cell line (human, ATCC, CCL-240) • U937—myeloid leukemia cell line (human)
# (§2) Cells were seeded in a microtiter plate in MEM containing 2 mM L-glutamine, 100 units/ml penicillin, 100 ug/ml streptomycin and 10% FCS at 37° C. The cultured cells were incubated, during their linear growth phase in the absence (control group) or presence of various DP-BFAs as indicated. The final concentrations of the tested DP-BFAs ranged from 1.5 to 200 microMolars. At the end of the incubation period, which was five days for the bone marrow cells and three days for all the other cell lines, the cytotoxic effect of the added P-BFA on the cells was estimated by using the colorimetric MTT assay. The MTT assay (Mosmann (1983) J. Immunol Methods 65: 55–63) measures mitochondrial reductase activity and serves for quantitative assessment of cellular viability. Drug concentration that causes 50% reduction in cell viability in comparison to the control group, is defined as EC50. The EC50 values of the tested DP-BFA compounds were calculated from dose response curves established for each of the different assayed cell lines.
# (§3) Each EC50 value is an average of EC50 values derived from 1–5 independent experiments.
# [2] = test system: SKBR-3 breast cancer cell line; assay: MTT cytotoxicity, SKBR-3; assay type: cell-based, human; conditions: three days, read-out: EC50 (50% reduction in cell viability)
# Method: as §1, §2, §3
# [3] = test system: Neuro2a neuroblastoma cell line; assay: MTT cytotoxicity, Neuro2a; assay type: cell-based, mouse; conditions: three days, read-out: EC50 (50% reduction in cell viability)
# Method: as §1, §2, §3
# [4] = test system: Primary bronchial epithelial cells; assay: MTT cytotoxicity, normal primary epithelial cells; assay type: cell-based, human; conditions: Normal primary epithel, three days, read-out: EC50 (50% reduction in cell viability)
# Method: as §1, §2, §3
# Primary fibroblasts = assay: MTT cytotoxicity, normal primary fibroblasts; assay type: cell-based, human; conditions: three days, read-out: EC50 (50% reduction in cell viability)
# Method: as §1, §2, §3
# [5] = test system: Normal bone marrow (BM) cells; assay: MTT cytotoxicity, normal bone marrow cells; assay type: cell-based, mouse; conditions: five days, read-out: EC50 (50% reduction in cell viability)
# Method: as §1, §2, §3
# [6] = test system: blood tumor barrier (BTB) of C6 glioma; assay: BTB opening in C6 glioma-bearing rats, Evans blue accumulation in tumor; assay type: in vivo, Sprague Dawley rats; conditions: for EC50: C6 glioma-bearing rats; for BTB EB μg/g Tumor: concentrations around EC50 (Mannitol 25%), unilateral 30 s infusion; for Specificity Tumor/Non-tumor (T/NT): ratio of EB accumulated in tumor and non-tumor brain
# Method: (§4) In order to study the ability of DP-BFA compounds to modulate blood tumor barrier (BTB), a model system of C6 glioma-bearing rats, was employed.
# (§5) Sprague Dawley (SD) rats were inoculated with C6 gliosarcoma cells following the procedure described by Bartus et al. (Exp Neurol (1996); 142:14–28). A small burr-hole was made in the frontal scalp bone of the rat fixed in a stereotaxis apparatus. Using a Hamilton syringe, 10 μl or 5 μl of media, containing 2.5×10^5 C6 gliosarcoma cells were inoculated into the frontal cortex. Coordinates were 1 mm posterior of bregma, 2.5 mm—lateral, and 3 mm—depth. The needle remained in the place for 5 min. After removal of the needle, fascia and scalp were sutured. The rats were checked 6–8 days after inoculation, when tumors of sufficient size (20–60 mg) had developed. The tumor was weighed after F—Na visualization and dissection. Parts of the rats' brains were subject to histological examinations and monitored for Evans Blue and Fluorescein uptake into ipsilateral tumour tissue, peritumoural tissue and contralateral tissue.
# (§6) The bilateral tumor model system of C6 glioma-bearing rats described in Example 23 above was employed for screening of various derivatives of DP-BFA for their ability to permeabilize the blood brain barrier (BBB) in comparison to their effect on the blood tumor barrier (BTB). The experimental procedure described in Example 23 was followed except that the tumor-bearing rats were further treated with DP-BFA. The tested compounds, at concentrations around their EC50 values, were unilaterally infused into the external carotis artery over 30 seconds as described in Example 17. Animals treated with vehicle only serve as a control group. Permeabilization effect was quantitated by measuring accumulation of albumin bound Evans blue dye in tumor (T) versus non-tumor (NT) tissues.
# (§7) Specificity index is defined as the ratio between the levels of EB accumulated in tumor and those accumulated in non-tumor brain tissues (T/NT).
# [7] = test system: HL60 myeloid leukemia cell line; assay: MTT cytotoxicity, HL60; assay type: cell-based, human; conditions: HL60, three days, read-out: EC50 (50% reduction in cell viability)
# Method: as §1, §2, §3
# [8] = Octanol/saline solubility and partition coefficient, shake-flask technique; conditions: for logD / LogPc (octanol-saline partition coefficient): octanol/physiological saline; for Water mg/ml (solubility in aqueous solution): physiological saline as aqueous solution; for Water mg/ml (solubility in aqueous solution) / LogPc (octanol-saline partition coefficient): sodium salts; for Octanol mg/ml (solubility in octanol): sodium salts of the branched fatty acids and their PO4 derivatives
# Method: The lipophilicity values of various derivatives of branched fatty acids were estimated by comparing the solubility of these compounds in organic versus aqueous solutions. Octanol and physiological saline were used, respectively, as the organic and aqueous solutions. The partition coefficient (Pc) value, i.e. the octanol/saline distribution was measured by the shake-flask technique.
# [9] = test system: blood brain barrier (BBB); assay: BBB opening in C6 glioma-bearing rats, Evans blue accumulation in non-tumor brain; assay type: in vivo, Sprague Dawley rats; conditions: concentrations around EC50 (Mannitol 25%), unilateral 30 s infusion
# Method: as §4, §5, §6, §7
# [10] = Homo sapiens, Primary bronchial epithelial cell, 72 h
# [11] = octanol, organic solvent or mixture
# [12] = physiological saline, saline or isotonic
# [13] = Mus musculus, Bone marrow cell, 120 h
Compound,EC50 [1] [µM],EC50 [2] [µM],EC50 [3] [µM],EC50 ([6]; Rattus norvegicus) [µM],BTB EB μg/g Tumor [6] [µg/g],Specificity Tumor/Non-tumor (T/NT) [6],"EC50 ([7]; Homo sapiens, HL-60, 72 h) [µM]",anti-tumor effect on glioma growth (in words) (C6 gliosarcoma tumor),"EC50 ([1]; Homo sapiens, 72 h) [µM]","EC50 ([2]; Homo sapiens, SK-BR-3, 72 h) [µM]","EC50 ([3]; Mus musculus, N2a, 72 h) [µM]","EC50 [4, 10] [µM]","solubility [8, 11] [µg/mL]",logD [8],"solubility [8, 12] [µg/mL]","EC50 (Primary fibroblasts; Homo sapiens, Fibroblast, 72 h) [µM]",BBB EB μg/g Non-tumor brain [9] [µg/g],EC50 [6] [µM],Water mg/ml (solubility in aqueous solution) [8] [mg/mL],Octanol mg/ml (solubility in octanol) [8] [mg/mL],other results
"CCCCCCCCCCCCC(CCC)C(=O)OCCOCCOP(=O)([O-])[O-].[Na+].[Na+] (stereo not drawn) [3,12-DEG-PO4Na2, 2-[2′-(2″-Propyltetradecanoyloxy)-ethoxy]ethyl Disodium Phosphate]",40,60,58,–,–,–,–,–,–,–,–,–,–,–,–,–,–,–,–,–,Tumor volume (mm^3) ± SE (C6 gliosarcoma tumor; P-BFA 30 μM i.a.): 1.6 ± 0.4 mm^3; EC50 [4]: > 200 µM; EC50 (Primary fibroblasts): 65 µM; EC50 [5]: 62 µM
"CCCCCCCCCCCCC(CCC)C(=O)OCCOP(=O)([O-])OCC[N+](C)(C)C (stereo not drawn) [3,12-MEG-PC, 2-(2′-Propyltetradecanoyloxy)ethylphosphocholine]",–,–,–,20,12,2,20,significant anti-tumor activity,75,50,70,94,> 10000,1.22,> 10000,160,6,–,–,–,"Tumor volume (mm^3) ± SE (C6 gliosarcoma tumor; P-BFA 10 μM i.a.): 2.88 ± 0.6 mm^3; EC50 [5, 13]: 95 µM"
"CCCCCCCCCCCCC(CCC)OP(=O)([O-])OCC[N+](C)(C)C (stereo not drawn) [3,12-PC, 4-Hexadecanyl phosphocholine]",150,62,–,–,17 ± 2,1.8 ± 0.5,–,–,–,–,–,–,–,–,–,–,10 ± 2,52 ± 7,>10,>10,EC50 [7]: 47 µM; Tumor volume (mm^3) ± SE (C6 gliosarcoma tumor; P-BFA 50 μM i.a.): 3.8 ± 0.8 mm^3
"2-(4′-Hexadecanoyloxy)ethoxyethyl phosphate [3,12-DEG-PO4]",–,–,–,–,34 ± 8,22 and 22 ± 5,–,most pronounced anti-tumor effect,–,–,–,–,–,–,–,–,2.0 ± 0.2,7 ± 2,8,>5,LogPc (octanol-saline partition coefficient) [8]: 1.31
"CCCCCCCCCCCCC(CCC)C(=O)[O-].[Na+] (stereo not drawn) [3,12-Na, reference compound]",100,130,76,–,44 ± 8,1.1 ± 0.3,–,–,–,–,–,–,–,–,–,–,43 ± 9,22 ± 4,>10,>20,LogPc (octanol-saline partition coefficient) [8]: 0.99
"CCCCCCCCCCCCC(CCC)C(=O)OCCOCCOP(=O)([O-])OCC[N+](C)(C)C (stereo not drawn) [3,12-DEG-PC, 2-(2′-Propyltetradecanoyloxy)ethoxyethylphosphocholine]",–,–,–,60,11,2,11,–,113,40,134,90,> 50000,0.73,> 10000,170,5,–,–,–,"Tumor volume (mm^3) ± SE (C6 gliosarcoma tumor; P-BFA 60 μM i.a.): 3.9 ± 1.0 mm^3; EC50 [5, 13]: 166 µM"
